Laboratory results reported in patent publication US10487143B2, “Vaccines against HER3 antigens and methods of using the same” (Duke University, priority 2016, dated 2019).

How the values were obtained:
[1] = system: murine CD8+ T cells stimulated with peptide-pulsed T2 cells; assay: IFN-γ ELISPOT after peptide vaccination of HLA-A*0201-transgenic mice; type: in vivo; conditions: mice immunized with mixture of 100 μg of each peptide in PBS:Montanide ISA 51, 3 weekly vaccinations; CD8+ T cells stimulated with the same epitope on T2 cells; FIG. 1
Description: To further validate the identified HER-3-derived peptide epitopes (SEQ ID NO: 1 and SEQ ID NO: 3), we vaccinated HLA-A*0201-transgenic mice with these peptides. Female CB6F1-Tg(HLA-A*0201/H2-K^b) A*0201 mice were purchased from Charles River Laboratories (Raleigh, N.C.). These animals carry a transgene consisting of fragments of the human HLA-A*0201 gene and mouse H2-K^b gene which encodes a chimeric class I molecule consisting of the human HLA-A2.1 leader, α1 and α2 domains ligated to the murine α3, transmembrane and cytoplasmic H2-K^b domain Mice were maintained in a specific pathogen-free environment. All mice were used at 8 to 12 weeks of age. Animals were housed in a specific pathogen-free environment at the animal facility of the DUKE University Medical Center. All mice used in this study were cared for in accordance with the Guide for Humane care and use of Laboratory Animals published by the National Institutes of Health. All the animal experimental protocols were approved by the Duke University Medical Center Institutional Animal Care and Use Committee.
Mice were immunized with a mixture of 100 μg of each peptide emulsified in PBS:Montanide ISA 51 (1:1) (SEPPIC, France). […]
ELISPOT assays were performed without re-stimulation of cells. […] Spots of the dried plate were counted using an ImmunoScan ELISPOT reader (C.T.L., Cellular Technology Ltd.).

[2] = system: HLA-A*0201-positive- and HER3-positive MCF-7 cells; assay: Human CTL (51Cr release) assay on MCF-7 target cells; type: cell-based; conditions: effector to target ratio 25 to 1; for killing of MCF-7 cells by peptide-induced CTL: CTL induced with peptide-loaded (10 μM) human DCs, unloaded MCF-7 targets, FIGS. 2A-2B
Procedure: (§1) Immature human DCs (Dendritic cells) were loaded for 2 hours at 10 μM with peptides, washed and then co-cultured with untouched autologous T cells (isolated via magnetic bead-based separation) at a DC to T-cell ratio of 1:20 in complete RPMI media supplemented with 12.5 μg/mL pIC, (polyinosinic-polycytidylic acid, Sigma) and 1.0 μg/mL recombinant CD40L plus 1.0 μg/mL Enhancer (Alexis Biochemicals). 20 U/ml of recombinant human Interleukin-2 (IL-2) were added after 3 days and every other day thereafter. Cells were re-stimulated twice after 7 days (DC to T cell ratio of 1:10) and analyzed for cytolytic activity 10 days after the last re-stimulation.
(§2) 2×10^6 target cells were harvested, washed, counted, and labeled with 100 μCi of Na2^51CrO4 (Amersham) in 0.5 ml complete RPMI at 37° C. for 1.5 h. Exogenous loading of cells with 10 μM synthetic peptide was performed simultaneously with labeling reactions. CTLs (untouched CD8^+ T cells isolated via magnetic-bead-based techniques (Miltenyi Biotec)) were washed, counted, and diluted to the desired density in complete RPMI 1640 and plated in duplicate wells in a round-bottomed, 96-well plate. Target cells were washed three times, resuspended in complete RPMI and incubated at 37° C. and 5% CO2. After 1 h, cells were washed one more time, diluted to 10^4 cells/ml and co-incubated with CTLs at indicated effector to target ratio of 25 to 1. The plates were spun briefly at 800×g and incubated for 4-5 h at 37° C. Supernatants were harvested and counted in a gamma counter. Duplicate wells were averaged, and the percentage of specific lysis was calculated as: […]

[3] = system: HLA-A*0201-positive, but HER3-negative LNCaP cells; assay: Human CTL (51Cr release) assay on LNCaP target cells; type: cell-based; conditions: effector to target ratio 25 to 1, FIG. 2B
Procedure: as §1
as §2, with “After 1 h, cells were washed one more time, diluted to 10^4 cells/ml and co-incubated with CTLs at indicated effector to target ratio of 25 to 1. The plates were spun briefly at 800×g and incubated for 4-5 h at 37° C.” left out

Row | Sequence | induction of epitope-specific CD8+ T cells producing IFN-γ (ELISPOT) [1] | killing of MCF-7 cells by peptide-induced CTL [2] | killing of epitope-loaded LNCaP cells by peptide-specific CTL ([3]; LNCaP targets loaded with 10 μM HER3943-954) | killing of LNCaP cells by peptide-specific CTL ([3]; unloaded HER3-negative LNCaP targets) | killing of epitope-loaded MCF-7 cells by peptide-induced CTL ([2]; target cells loaded with 10 μM HER3943-954, FIG. 2B)
1 | LAEVPDLLE (Synthetic HER3 Antigen 1) [HER3917-925] | failed to induce CD8^+ T cells that produced IFN-γ | failed to induce HERS-specific CTLs |  |  | 
2 | VMVKCWMIDENI (Synthetic HER3 Antigen 3) [HER3943-954] | induced epitope-specific CD8^+ T cells | killed MCF-7 cells efficiently | Killing | did not kill | cytolytic activity could further be enhanced
